Data: patent publication US20240343707A1, “SUBSTITUTED PHENYL ETHYNYL PYRIMIDINES AS POTENT INHIBITORS OF ALPHAVIRUSES” (Southern Research Institute, priority 2023, published 2024)

Assays:
Assay type in all cases: cell-based
[1] = test system: CHIKV; experiment: CHIKV virus titer reduction (VTR) assay in NHDF cells; settings: Chikungunya virus; for EC90: read-out: CHIKV EC90 (μM); for log reduction at 10 µM: read-out: CHIKV VTR (logs)
[2] = test system: VEEV (TC-83); experiment: microbe, parasite or virus in culture; settings: Venezuelan equine encephalitis virus, read-out: VEEV EC50 (μM)
[3] = test system: VEEV; experiment: microbe, parasite or virus in culture; settings: Venezuelan equine encephalitis virus, NHDF; for EC90: read-out: VEEV EC90 (μM); for log reduction at 10 µM: read-out: VEEV VTR (logs)
[4] = in vitro; settings: human
[5] = test system: CHIKV; experiment: microbe, parasite or virus in culture; settings: Chikungunya virus, read-out: CHIK EC50 (μM)

Row | SMILES | EC90 [1] [µM] | log reduction at 10 µM [1] | EC50 [2] [µM] | EC90 [3] [µM] | log reduction at 10 µM [3] | CC50 [4] [µM] | EC50 [5] [µM]
1 | O=C1CCc2cc(NC(=O)c3cccc(C#Cc4ncccn4)c3)ccc2N1 [Compound 1, N-(2-oxo-3,4-dihydro-1H-quinolin-6-yl)-3-(2-pyrimidin-2-ylethynyl)benzamide] | 0.18 | 3.15 | 1.6 | 0.11 | 7.85 | > 40 | 0.23
2 | O=C1CCCc2cc(NC(=O)c3cccc(C#Cc4ncccn4)c3)ccc2N1 [Compound 2, N-(2-oxo-1,3,4,5-tetrahydro-1-benzazepin-7-yl)-3-(2-pyrimidin-2-ylethynyl)benzamide] | 0.15 | 7.7 | 2.27 | 0.55 | 7.77 | > 40 | 0.51
3 | CN1C(=O)CCc2cc(NC(=O)c3cccc(C#Cc4ncccn4)c3)ccc21 [Compound 3, N-(1-methyl-2-oxo-3,4-dihydroquinolin-6-yl)-3-(2-pyrimidin-2-ylethynyl)benzamide] | 0.13 | 8 | 0.77 | 0.33 | 8.58 | 35.3 | 0.3
4 | O=C1Cc2cc(NC(=O)c3cccc(C#Cc4ncccn4)c3)ccc2N1 [Compound 4, N-(2-oxoindolin-5-yl)-3-(2-pyrimidin-2-ylethynyl)benzamide] | 0.095 | 10 | 2.11 | 0.32 | 3.19 | > 40 | 0.66
5 | O=C1CCc2cc(C(=O)Nc3cccc(C#Cc4ncccn4)c3)ccc2N1 [Compound 5, 2-oxo-N-[3-(2-pyrimidin-2-ylethynyl)phenyl]-3,4-dihydro-1H-quinoline-6-carboxamide] | 1.09 | 2.72 | 3.98 | 1.15 | 6.43 | > 40 | 3.31
6 | CCOP(=O)(OCC)c1ccc(NC(=O)c2cccc(C#Cc3ncccn3)c2)cc1 [Compound 6, N-(4-diethoxyphosphorylphenyl)-3-(2-pyrimidin-2-ylethynyl)benzamide] |  |  | 0.43 |  |  | > 40 | 0.44
7 | O=C(NCc1ccc2c(c1)OC(F)(F)O2)c1cccc(C#Cc2ncccn2)c1 [Compound 7, N-[(2,2-difluoro-1,3-benzodioxol-5-yl)methyl]-3-(2-pyrimidin-2-ylethynyl)benzamide] |  | 4.43 | > 40 |  | 3.88 | > 40 | 4.32
8 | O=C(Nc1ccc2c(c1)CCCCC2)c1cccc(C#Cc2ncccn2)c1 [Compound 8, 3-(2-pyrimidin-2-ylethynyl)-N-(6,7,8,9-tetrahydro-5H-benzo[7]annulen-3-yl)benzamide] | 0.43 | 6.89 | > 40 | 2.43 | 7.97 | 6.97 | 0.71
9 | O=C(Nc1cccc(C#Cc2ncccn2)c1)c1nc2c(s1)CCCC2 [Compound 9, N-[3-(2-pyrimidin-2-ylethynyl)phenyl]-4,5,6,7-tetrahydro-1,3-benzothiazole-2-carboxamide] | 3.9 | 1.65 | > 40 | 7.37 | 2.59 | 9.59 | 5.78
10 | O=C1CCc2cc(S(=O)(=O)Nc3cccc(C#Cc4ncccn4)c3)ccc2N1 [Compound 10, 2-oxo-N-[3-(2-pyrimidin-2-ylethynyl)phenyl]-3,4-dihydro-1H-quinoline-6-sulfonamide] | 1.13 | 0.08 | > 40 |  | 0.81 | 33.2 | > 40
11 | O=C(Nc1cccc(C#Cc2ncccn2)c1)C12CC3CC(CC(C3)C1)C2 [Compound 11, N-[3-(2-pyrimidin-2-ylethynyl)phenyl]adamantane-1-carboxamide] | 20.3 | 0.3 | > 40 | 20.1 | 1.02 | > 40 | > 40
12 | O=C(Nc1ccc2c(c1)CCCN2)c1cccc(C#Cc2ncccn2)c1 [Compound 12, 3-(2-pyrimidin-2-ylethynyl)-N-(1,2,3,4-tetrahydroquinolin-6-yl)benzamide] | 0.74 | 7.58 | 1.39 | 0.72 | 5.47 | 38.8 | 1.02
13 | O=C1CC(Cc2ccc(NC(=O)c3cccc(C#Cc4ncccn4)c3)cc2)C(=O)N1 (stereo not shown) [Compound 13, N-[4-[(2,5-dioxopyrrolidin-3-yl)methyl]phenyl]-3-(2-pyrimidin-2-ylethynyl)benzamide] | 0.16 | 2.76 | 7.19 | 2.53 | 2.45 | > 40 | 2.8
14 | COc1cc(C#Cc2ncccn2)cc(C(=O)Nc2ccc3c(c2)CCC(=O)N3)c1 [Compound 14, 3-methoxy-N-(2-oxo-3,4-dihydro-1H-quinolin-6-yl)-5-(2-pyrimidin-2-ylethynyl)benzamide] |  |  | 0.44 |  |  | > 40 | 0.16
15 | COc1cc(C#Cc2ncccn2)cc(C(=O)Nc2ccc3c(c2)CCC(=O)N3C)c1 [Compound 15, 3-methoxy-N-(1-methyl-2-oxo-3,4-dihydroquinolin-6-yl)-5-(2-pyrimidin-2-ylethynyl)benzamide] |  |  | 0.33 |  |  | 26 | 0.2
16 | O=C1CCc2cc(NC(=O)c3cc(C#Cc4ncccn4)cc(OC(F)(F)F)c3)ccc2N1 [Compound 16, N-(2-oxo-3,4-dihydro-1H-quinolin-6-yl)-3-(2-pyrimidin-2-ylethynyl)-5-(trifluoromethoxy)benzamide] |  |  | 0.16 |  |  | > 40 | 0.19
17 | O=C1CCc2ccc(NC(=O)c3cccc(C#Cc4ncccn4)c3)cc2N1 [Compound 17, N-(2-oxo-3,4-dihydro-1H-quinolin-7-yl)-3-(2-pyrimidin-2-ylethynyl)benzamide] | 0.61 | 6.94 | 2.18 | 0.45 | 6.81 | > 40 | 0.83
18 | O=C(Nc1cccc(C#Cc2ncccn2)c1)c1cc(C2CC2)[nH]c(=O)c1 [Compound 18, 2-cyclopropyl-6-oxo-N-[3-(2-pyrimidin-2-ylethynyl)phenyl]-1H-pyridine-4-carboxamide] |  | 0.62 | 10.3 | 5.66 | 2.43 | > 40 | 28.1
19 | CC(C)(C)c1ccc(NC(=O)c2cccc(C#Cc3ncccn3)c2)cc1 [Compound 19, N-(4-tert-butylphenyl)-3-(2-pyrimidin-2-ylethynyl)benzamide] | 0.2 | 7.59 | 0.93 | 0.3 | 8.26 | 5.08 | 1.04
20 | CC(C)(C#N)c1ccc(NC(=O)c2cccc(C#Cc3ncccn3)c2)cc1 [Compound 20, N-[4-(1-cyano-1-methyl-ethyl)phenyl]-3-(2-pyrimidin-2-ylethynyl)benzamide] | 0.07 | 10 | 0.34 | 0.06 | 8.08 | 17.8 | 0.27
21 | O=C(Nc1cccc(C#Cc2ncccn2)c1)c1ccc(N2CCCCC2=O)cc1 [Compound 21, 4-(2-oxo-1-piperidyl)-N-[3-(2-pyrimidin-2-ylethynyl)phenyl]benzamide] |  | 1.83 | 32.2 |  | 0.72 | > 40 | > 40
22 | O=C(Nc1ccc2c(c1)CCCC2)c1cccc(C#Cc2ncccn2)c1 [Compound 22, 3-(2-pyrimidin-2-ylethynyl)-N-tetralin-6-yl-benzamide] | 0.7 |  | 1.26 | 0.7 |  | > 40 | 0.83
23 | O=C(Nc1ccc(C(F)(F)F)cc1)c1cccc(C#Cc2ncccn2)c1 [Compound 23, 3-(2-pyrimidin-2-ylethynyl)-N-[4-(trifluoromethyl)phenyl]benzamide] | 0.85 |  | 0.71 | 0.82 |  | > 40 | 1.2
24 | O=C(Nc1ccc(N2CCCCC2=O)cc1)c1cccc(C#Cc2ncccn2)c1 [Compound 24, N-[4-(2-oxo-1-piperidyl)phenyl]-3-(2-pyrimidin-2-ylethynyl)benzamide] | 0.63 | 4.18 |  | 2.44 | 4.6 |  | 
